Reference: patent US9006241B2, “Pyrimidine derivatives” (Noviga Research AB, priority 2011, dated 2015)

Experiments:
Type in all cases: cell-based
[1] = tested on: HL-60 (leukemia); assay: FMCA, HL-60; conditions: Homo sapiens, HL-60 leukemia cells
Text: (§1) The Fluorometric Microculture Cytotoxicity Assay, FMCA (Larsson, R., et al.; Anticancer Res, 1989, 9, 1111-1119), is a three day non-clonogenic microplate-based cell viability assay used for measurement of the cytotoxic and/or cytostatic effect of compounds in vitro (Lindhagen, E. et al.; Nat. Protoc., 2008, 3, 1364-1369). FMCA represents a valuable method to measure cytotoxicity in a number of cell types, both cell lines and primary cells from patients (Larsson, R., et al.; Int. J. Cancer, 1992, 50, 177-185; Fridborg, H., et al.; Eur. J. Cancer, 1999. 35, 424-432; Dhar, S., et al.; Br. J. Cancer, 1996, 74, 888-896).
(§2) FMCA is based on the principle that fluorescein diacetate (FDA) is converted to the fluorescent probe fluorescein by esterases in the plasma membranes of living cells. For experiments, 96 or 384-well microplates are prepared with compounds and stored at −70° C. until use. Cells are then seeded into the drug-prepared plates and placed in an incubator for 72 h. On the last day of incubation, the plates are washed and a buffer containing FDA is added and incubated with the cells for 45 minutes. Finally the fluorescence per well is measured in a fluorometer and a Survival Index % (SI) for each compound-treated well is calculated with the equation: Compound-treated cells minus blank divided by control cells minus blank. A high SI-value indicates a large percentage of living cells and vice versa.
(§3) For dose-response experiments, 384-well plates were prepared as follows:
(§4) Compounds of the invention as well comparative kinase inhibitors sorafenib sunitinib, dasatinib, pazopanib and a reference compound disclosed in WO 2009/071535 (compound #107) were diluted with PBS to a concentration ten-times higher than the desired starting concentration. Then, a Biomek 2000 liquid handling system was employed to serially dilute the compounds in a deep-well 384-well plate. From this plate, assay plates containing 5 μl compound per well were prepared with the Biomek 2000. Certain compounds precipitated when diluted with PBS, and these compounds were therefore prepared in a 96-well plate manually as described above using culture medium RPMI 1640 instead of PBS.
(§5) The compounds were also tested at five concentrations, with five times serial dilution on the following cell types: CCRF-CEM, hTERT-RPE1 (normal retinal epithelial cells), hRPTEpiC (normal renal cells), and peripheral blood mononuclear cells (PBMC). Each experiment was performed three times, except for PBMC and hRPTEpiC, which were performed twice. SI-values were calculated, graphs were plotted using GraphPadPrism 5.0 (GraphPad Software Inc. La Jolla, Calif.) and IC50-values for each cell type and compound were determined from the curves.
(§6) The compounds of the invention were also tested on further cancer cell lines related to breast cancer (MDA-MB-231; see e.g. Cailleau, R., et al.; J. Natl. Cancer Inst., 1974, 53, 661-674), teniposide-resistant leukemia (CEM/VM1 see e.g. Danks, M., et al.; Cancer Res., 1987, 47, 1297-1301), leukemia (HL-60; see e.g. Collins, S., et al.; Nature, 1977, 270, 347-349), doxorubicin-resistant lung cancer (H69AR; see e.g. Mirski, S., et al.; Cancer Res., 1987, 47, 2594-2598), myeloma (RPMI 8226; see e.g. Matsuoka, Y., et al.; Proc. Soc. Exp. Biol. Med., 1967, 125, 1246-1250), doxorubicin-resistant myeloma (8226/Dox40; see e.g. Dalton, W., et al.; Blood, 1989, 15, 747-752), lymphoma (U-937, see e.g. Sundström, C., et al.; Int. […]

[2] = tested on: MDA-MB-231 (breast cancer); assay: FMCA, MDA-MB-231; conditions: Homo sapiens, MDA-MB-231 breast cancer cells
Text: as §1, §2, §3, §4, §5, §6

[3] = tested on: PC-3 (prostate cancer); assay: FMCA, PC-3; conditions: PC-3 prostate cancer cells
Text: as §1, §2, §3, §4, §5, §6

[4] = tested on: BxPC-3 (pancreatic cancer); assay: FMCA, BxPC-3; conditions: Homo sapiens, BxPC-3 pancreatic cancer cells
Text: as §1, §2, §3, §4, §5, §6

[5] = tested on: 8226/Dox40 (doxorubicin-resistant myeloma); assay: FMCA, 8226/Dox40; conditions: 8226/Dox40 doxorubicin-resistant myeloma cells
Text: as §1, §2, §3, §4, §5
as §6, with “Int. J. Cancer, 1976, 17, 565-577), vincristin-resistant lymphoma (U-937-vcr; see e.g. Botling, J., et al.; Int. J. Cancer, 1994, 58, 269-274), ovarian cancer (A2780; see e.g. Hamilton, T., et al.; Semin. Oncol., 1984, 11, 285-298), doxorubicin-resistant ovarian cancer (A2780/Adr), cisplatin-resistant ovarian cancer (A2780/Cis; see e.g. Behrens, B., et al. Cancer Res. 1987, 47, 414-418), pancreatic cancer (PANC-1, BxPC-3, and MIA PaCa-2; see e.g. Lieber, M., et al.; Int. J. Cancer, 1975, 15, 741-747; Loor, R., et al.; Clin. Lab.” for “Int.”

[6] = tested on: CEM/VM1 (teniposide-resistant leukemia); assay: FMCA, CEM/VM1; conditions: Homo sapiens, CEM/VM1 teniposide-resistant leukemia cells
Text: as §1, §2, §3, §4, §5
as §6, with “Int. J. Cancer, 1976, 17, 565-577), vincristin-resistant lymphoma (U-937-vcr; see e.g. Botling, J., et al.; Int. J. Cancer, 1994, 58, 269-274), ovarian cancer (A2780; see e.g. Hamilton, T., et al.; Semin. Oncol., 1984, 11, 285-298), doxorubicin-resistant ovarian cancer (A2780/Adr), cisplatin-resistant ovarian cancer (A2780/Cis; see e.g. Behrens, B., et al. Cancer Res. 1987, 47, 414-418), pancreatic cancer (PANC-1, BxPC-3, and MIA PaCa-2; see e.g. Lieber, M., et al.; Int. J. Cancer, 1975, 15, 741-747; Loor, R., et al.; Clin. Lab.” for “Int.”

[7] = tested on: A2780 (ovarian cancer); assay: FMCA, A2780; conditions: Homo sapiens, A2780 ovarian cancer cells
Text: as §1, §2, §3, §4, §5
as §6, with “Int. J. Cancer, 1976, 17, 565-577), vincristin-resistant lymphoma (U-937-vcr; see e.g. Botling, J., et al.; Int. J. Cancer, 1994, 58, 269-274), ovarian cancer (A2780; see e.g. Hamilton, T., et al.; Semin. Oncol., 1984, 11, 285-298), doxorubicin-resistant ovarian cancer (A2780/Adr), cisplatin-resistant ovarian cancer (A2780/Cis; see e.g. Behrens, B., et al. Cancer Res. 1987, 47, 414-418), pancreatic cancer (PANC-1, BxPC-3, and MIA PaCa-2; see e.g. Lieber, M., et al.; Int. J. Cancer, 1975, 15, 741-747; Loor, R., et al.; Clin. Lab.” for “Int.”

[8] = tested on: U-937-vcr (vincristin-resistant lymphoma); assay: FMCA, U-937-vcr; conditions: U-937-vcr vincristin-resistant lymphoma cells
Text: as §1, §2, §3, §4, §5
as §6, with “Int. J. Cancer, 1976, 17, 565-577), vincristin-resistant lymphoma (U-937-vcr; see e.g. Botling, J., et al.; Int. J. Cancer, 1994, 58, 269-274), ovarian cancer (A2780; see e.g. Hamilton, T., et al.; Semin. Oncol., 1984, 11, 285-298), doxorubicin-resistant ovarian cancer (A2780/Adr), cisplatin-resistant ovarian cancer (A2780/Cis; see e.g. Behrens, B., et al. Cancer Res. 1987, 47, 414-418), pancreatic cancer (PANC-1, BxPC-3, and MIA PaCa-2; see e.g. Lieber, M., et al.; Int. J. Cancer, 1975, 15, 741-747; Loor, R., et al.; Clin. Lab.” for “Int.”

[9] = tested on: A2780/Adr (doxorubicin-resistant ovarian cancer); assay: FMCA, A2780/Adr; conditions: A2780/Adr doxorubicin-resistant ovarian cancer cells
Text: as §1, §2, §3, §4, §5
as §6, with “Int. J. Cancer, 1976, 17, 565-577), vincristin-resistant lymphoma (U-937-vcr; see e.g. Botling, J., et al.; Int. J. Cancer, 1994, 58, 269-274), ovarian cancer (A2780; see e.g. Hamilton, T., et al.; Semin. Oncol., 1984, 11, 285-298), doxorubicin-resistant ovarian cancer (A2780/Adr), cisplatin-resistant ovarian cancer (A2780/Cis; see e.g. Behrens, B., et al. Cancer Res. 1987, 47, 414-418), pancreatic cancer (PANC-1, BxPC-3, and MIA PaCa-2; see e.g. Lieber, M., et al.; Int. J. Cancer, 1975, 15, 741-747; Loor, R., et al.; Clin. Lab.” for “Int.”

[10] = tested on: U-937 (lymphoma); assay: FMCA, U-937; conditions: Homo sapiens, U-937 lymphoma cells
Text: as §1, §2, §3, §4, §5
as §6, with “Int. J. Cancer, 1976, 17, 565-577), vincristin-resistant lymphoma (U-937-vcr; see e.g. Botling, J., et al.; Int. J. Cancer, 1994, 58, 269-274), ovarian cancer (A2780; see e.g. Hamilton, T., et al.; Semin. Oncol., 1984, 11, 285-298), doxorubicin-resistant ovarian cancer (A2780/Adr), cisplatin-resistant ovarian cancer (A2780/Cis; see e.g. Behrens, B., et al. Cancer Res. 1987, 47, 414-418), pancreatic cancer (PANC-1, BxPC-3, and MIA PaCa-2; see e.g. Lieber, M., et al.; Int. J. Cancer, 1975, 15, 741-747; Loor, R., et al.; Clin. Lab.” for “Int.”

[11] = tested on: PANC-1 (pancreatic cancer); assay: FMCA, PANC-1; conditions: Homo sapiens, PANC-1 pancreatic cancer cells
Text: as §1, §2, §3, §4, §5, §6

[12] = tested on: A2780/Cis (cisplatin-resistant ovarian cancer); assay: FMCA, A2780/Cis; conditions: A2780cis, A2780/Cis cisplatin-resistant ovarian cancer cells
Text: as §1, §2, §3, §4, §5
as §6, with “Int. J. Cancer, 1976, 17, 565-577), vincristin-resistant lymphoma (U-937-vcr; see e.g. Botling, J., et al.; Int. J. Cancer, 1994, 58, 269-274), ovarian cancer (A2780; see e.g. Hamilton, T., et al.; Semin. Oncol., 1984, 11, 285-298), doxorubicin-resistant ovarian cancer (A2780/Adr), cisplatin-resistant ovarian cancer (A2780/Cis; see e.g. Behrens, B., et al. Cancer Res. 1987, 47, 414-418), pancreatic cancer (PANC-1, BxPC-3, and MIA PaCa-2; see e.g. Lieber, M., et al.; Int. J. Cancer, 1975, 15, 741-747; Loor, R., et al.; Clin. Lab.” for “Int.”

[13] = tested on: RPMI 8226 (myeloma); assay: FMCA, RPMI 8226; conditions: Homo sapiens, RPMI 8226 myeloma cells
Text: as §1, §2, §3, §4, §5
as §6, with “Int. J. Cancer, 1976, 17, 565-577), vincristin-resistant lymphoma (U-937-vcr; see e.g. Botling, J., et al.; Int. J. Cancer, 1994, 58, 269-274), ovarian cancer (A2780; see e.g. Hamilton, T., et al.; Semin. Oncol., 1984, 11, 285-298), doxorubicin-resistant ovarian cancer (A2780/Adr), cisplatin-resistant ovarian cancer (A2780/Cis; see e.g. Behrens, B., et al. Cancer Res. 1987, 47, 414-418), pancreatic cancer (PANC-1, BxPC-3, and MIA PaCa-2; see e.g. Lieber, M., et al.; Int. J. Cancer, 1975, 15, 741-747; Loor, R., et al.; Clin. Lab.” for “Int.”

[14] = tested on: H69AR (doxorubicin-resistant lung cancer); assay: FMCA, H69AR; conditions: Homo sapiens, H69AR doxorubicin-resistant lung cancer cells
Text: as §1, §2, §3, §4, §5
as §6, with “Int. J. Cancer, 1976, 17, 565-577), vincristin-resistant lymphoma (U-937-vcr; see e.g. Botling, J., et al.; Int. J. Cancer, 1994, 58, 269-274), ovarian cancer (A2780; see e.g. Hamilton, T., et al.; Semin. Oncol., 1984, 11, 285-298), doxorubicin-resistant ovarian cancer (A2780/Adr), cisplatin-resistant ovarian cancer (A2780/Cis; see e.g. Behrens, B., et al. Cancer Res. 1987, 47, 414-418), pancreatic cancer (PANC-1, BxPC-3, and MIA PaCa-2; see e.g. Lieber, M., et al.; Int. J. Cancer, 1975, 15, 741-747; Loor, R., et al.; Clin. Lab.” for “Int.”

[15] = tested on: MIA PaCa-2 (pancreatic cancer); assay: FMCA, MIA PaCa-2; conditions: Homo sapiens, MIA PaCa-2 pancreatic cancer cells
Text: as §1, §2, §3, §4, §5, §6

[16] = tested on: CCRF-CEM cancer cells - leukemia; assay: Fluorometric Microculture Cytotoxicity Assay (FMCA), CCRF-CEM; conditions: Homo sapiens, 72 h incubation
Text: as §1, §2
In subsequent experiments, compounds were tested, along with a number of approved cancer drugs (dasatinib, pazopanib, sorafenib, and sunitinib) as described above. Initially, the acute lymphoblastic leukemia cell line CCRF-CEM was used throughout. In the assay plates, medium was added to six empty wells (blank wells) and wells were filled with PBS and cell suspension and served as control wells. SI-values were then calculated for each compound-treated well as described above. All experiments were conducted twice and a new batch of plates was prepared for each experiment.
as §3, §4, §5

## COc1ccc2[nH]cc(CCNc3nccc(Nc4ccc5[nH]c(C)nc5c4)n3)c2c1 [Example 19, N^2-[2-(5-methoxy-1H-indol-3-yl)ethyl]-N^4-(2-methyl-1H-benzo[d]imidazol-5-yl)pyrimidine-2,4-diamine]
[1]
  EC50: 92 nM
[2]
  EC50: 1900 nM
[3]
  EC50: 2100 nM
[4]
  EC50: 910 nM
[5]
  EC50: 30 µM
[6]
  EC50: 62 nM
[7]
  EC50: 130 nM
[8]
  EC50: 780 nM
[9]
  EC50: 2000 nM
[10]
  EC50: 100 nM
[11]
  EC50: 5.2 µM
[12]
  EC50: 230 nM
[13]
  EC50: 7.8 µM
[14]
  EC50: 940 nM
[15]
  EC50: 31 nM
[16]
  EC50: 32 nM
